Data on 38 compounds can be found in patent US6693112B2, “Compounds for enhancing chemotherapy” (The Pennsylvania State University, priority 2000, dated 2004).

“And” between values parts separate entries of the source, which are not always exact repeats. Equal values may be shown once. Read-outs that look alike come from different tables or passages of the source.

Data set [1] has as its target T1, MRP (Homo sapiens, UniProt P33527).
T1 construct: MCF-7/VP cells, a cell line that expresses MRP; endogenous in cells; host or cells: MCF-7/VP cells
Put plainly: Reversal of MRP-mediated MDR: enhancement of vincristine cytotoxicity toward MCF-7/VP cells. In kind it is cell-based. The conditions noted are these: % survival with compound alone / with compound + 1 nM vincristine; for MRP1 antagonism score: >1.0 = chemosensitization. How it is done: Reversal of MRP-mediated MDR was examined by plating MCF-7/VP cells as described above and exposing the cells to varying concentrations of phenoxymethylquinoxalinone compounds in the absence or presence of 1 nM vincristine for 48 hours. Cell survival was assayed as described above. The percentage of cells that died following treatment was calculated as described above. Inhibition of MRP was manifested as the ability of the compound to enhance the cytotoxicity of vincristine toward MCF-7/VP cells.
Chemosensitization is indicated by a score greater than 1.0.
Chemosensitization is indicated by a score greater than 1.0. […]

The subject of data set [2] is MCF-7 cells. Put plainly: Cytotoxicity toward drug-sensitive MCF-7 cells (sulforhodamine B binding assay). The data set is classed as cell-based, human. The settings on record: for Toxicity: percent of MCF-7 cells killed by 10 μ/ml of the compound.
For data set [3], the target named is P-gp (Homo sapiens, UniProt P08183). The settings on record: for P-gp antagonism score / Pgp Antagonism: % survival with compound alone / with compound + 50 nM vinblastine; for P-gp antagonism score: >1.0 = chemosensitization; for p-GP/MRP1: ratio of P-gp and MRP1 antagonism scores. Here is the method: The percentage of cells that died following treatment was calculated as a percent decrease in sulforhodamine B binding as compared with control cultures. […] Inhibition of P-gp was manifested as the ability of the compound to enhance the cytotoxicity of vinblastine toward NCI/ADR cells. To assess the toxicity of the compounds toward drug-sensitive cells, the effects of the compounds on the growth of drug-sensitive MCF-7 cells were determined using the same methods.
The P-gp antagonism score was calculated by dividing the percent survival of NCI/ADR cells treated with the compound alone by the percent survival of NCI/ADR cells treated with the compound in the presence of 50 nM vinblastine. Chemosensitization is indicated by a score of more than 1.0.
The P-gp antagonism score was calculated by dividing the percent survival of NCI/ADR cells treated with […] by the percent survival of NCI/ADR cells treated with the compound in the presence of 50 nM vinblastine.

Setting [4] is: MCF-7 cells, 48 hours, concentration required to kill 50% of the cells, * = maximum dose tested (low solubility).
Where [5] appears, read: MCF-7 cells, concentration required to kill 50% of the cells.
Where [6] appears, read: concentration of compound at the maximum antagonism.

T1 sequence (P33527 whole entry): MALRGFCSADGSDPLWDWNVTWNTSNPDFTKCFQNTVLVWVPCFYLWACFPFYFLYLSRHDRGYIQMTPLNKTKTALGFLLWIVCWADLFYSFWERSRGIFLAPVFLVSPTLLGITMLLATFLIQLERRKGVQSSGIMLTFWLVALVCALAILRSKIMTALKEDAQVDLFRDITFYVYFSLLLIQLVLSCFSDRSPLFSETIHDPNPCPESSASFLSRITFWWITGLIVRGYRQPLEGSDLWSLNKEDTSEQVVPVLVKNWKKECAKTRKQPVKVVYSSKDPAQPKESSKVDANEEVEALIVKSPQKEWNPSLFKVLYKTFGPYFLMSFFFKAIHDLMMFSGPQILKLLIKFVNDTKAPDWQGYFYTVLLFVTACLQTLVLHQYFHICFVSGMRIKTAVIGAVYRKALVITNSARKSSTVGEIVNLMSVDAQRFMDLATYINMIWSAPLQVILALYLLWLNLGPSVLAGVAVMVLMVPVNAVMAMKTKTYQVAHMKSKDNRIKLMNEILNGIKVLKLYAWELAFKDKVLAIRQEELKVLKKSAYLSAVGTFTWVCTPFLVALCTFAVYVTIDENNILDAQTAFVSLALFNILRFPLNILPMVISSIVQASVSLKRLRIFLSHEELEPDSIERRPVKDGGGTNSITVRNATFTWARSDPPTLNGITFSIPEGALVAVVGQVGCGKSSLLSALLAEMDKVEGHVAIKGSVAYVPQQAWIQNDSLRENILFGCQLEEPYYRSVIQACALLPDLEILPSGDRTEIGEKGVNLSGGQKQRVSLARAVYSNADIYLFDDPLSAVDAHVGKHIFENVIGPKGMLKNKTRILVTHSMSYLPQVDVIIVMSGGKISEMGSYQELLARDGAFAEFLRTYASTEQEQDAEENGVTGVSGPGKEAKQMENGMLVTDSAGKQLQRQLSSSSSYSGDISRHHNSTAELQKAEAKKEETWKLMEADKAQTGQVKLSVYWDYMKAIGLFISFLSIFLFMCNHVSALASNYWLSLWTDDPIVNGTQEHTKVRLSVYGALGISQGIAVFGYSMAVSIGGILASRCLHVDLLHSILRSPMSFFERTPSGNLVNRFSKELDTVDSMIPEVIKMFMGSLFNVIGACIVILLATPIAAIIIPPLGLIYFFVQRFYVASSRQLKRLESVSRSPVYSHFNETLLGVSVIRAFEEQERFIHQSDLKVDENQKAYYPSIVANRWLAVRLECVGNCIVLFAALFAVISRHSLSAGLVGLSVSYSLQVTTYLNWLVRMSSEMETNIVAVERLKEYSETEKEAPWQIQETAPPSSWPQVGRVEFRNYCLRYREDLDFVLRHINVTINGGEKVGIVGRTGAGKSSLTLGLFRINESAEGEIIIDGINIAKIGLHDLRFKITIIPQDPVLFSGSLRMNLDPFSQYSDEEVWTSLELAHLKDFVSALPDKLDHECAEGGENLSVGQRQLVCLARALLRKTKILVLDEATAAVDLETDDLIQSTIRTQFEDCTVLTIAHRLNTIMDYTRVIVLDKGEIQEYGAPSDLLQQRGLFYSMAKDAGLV
Chain of P-gp (P08183 whole entry): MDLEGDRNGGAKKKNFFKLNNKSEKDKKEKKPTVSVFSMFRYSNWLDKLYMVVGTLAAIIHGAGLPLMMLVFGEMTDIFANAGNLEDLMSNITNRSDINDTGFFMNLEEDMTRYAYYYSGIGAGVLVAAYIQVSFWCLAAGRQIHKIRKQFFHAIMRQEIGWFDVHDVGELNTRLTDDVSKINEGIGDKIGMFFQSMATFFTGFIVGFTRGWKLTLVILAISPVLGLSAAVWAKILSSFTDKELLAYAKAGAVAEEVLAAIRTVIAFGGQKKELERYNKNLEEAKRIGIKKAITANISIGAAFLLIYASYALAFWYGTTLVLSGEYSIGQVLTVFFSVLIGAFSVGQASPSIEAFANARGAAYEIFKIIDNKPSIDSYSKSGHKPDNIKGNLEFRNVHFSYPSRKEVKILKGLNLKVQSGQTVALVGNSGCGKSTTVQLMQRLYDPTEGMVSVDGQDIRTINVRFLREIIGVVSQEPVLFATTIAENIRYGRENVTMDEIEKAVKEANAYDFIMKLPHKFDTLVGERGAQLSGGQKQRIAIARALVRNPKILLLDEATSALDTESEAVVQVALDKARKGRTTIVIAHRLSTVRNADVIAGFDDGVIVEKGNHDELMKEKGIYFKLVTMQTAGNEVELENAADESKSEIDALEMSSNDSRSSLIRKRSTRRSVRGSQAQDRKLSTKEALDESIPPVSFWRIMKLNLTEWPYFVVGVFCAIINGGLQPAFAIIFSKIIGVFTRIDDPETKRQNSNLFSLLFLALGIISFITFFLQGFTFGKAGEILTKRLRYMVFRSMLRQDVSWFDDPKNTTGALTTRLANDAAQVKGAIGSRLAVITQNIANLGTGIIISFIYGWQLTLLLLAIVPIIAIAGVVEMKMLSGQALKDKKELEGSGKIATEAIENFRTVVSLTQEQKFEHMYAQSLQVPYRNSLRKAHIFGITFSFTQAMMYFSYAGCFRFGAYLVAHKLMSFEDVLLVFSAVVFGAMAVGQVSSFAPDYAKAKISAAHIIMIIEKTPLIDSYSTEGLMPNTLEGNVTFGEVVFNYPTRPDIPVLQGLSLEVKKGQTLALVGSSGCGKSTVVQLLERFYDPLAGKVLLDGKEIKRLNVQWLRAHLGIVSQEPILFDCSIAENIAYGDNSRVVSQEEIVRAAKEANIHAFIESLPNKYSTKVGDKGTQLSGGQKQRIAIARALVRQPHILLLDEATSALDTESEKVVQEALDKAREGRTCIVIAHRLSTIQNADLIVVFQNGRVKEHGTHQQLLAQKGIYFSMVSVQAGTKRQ

As to `Cn1c(=O)c(COc2ccccc2)nc2ccccc21` [Compound 1, 1-Methyl-3-phenoxymethyl-1H-quinoxalin-2-one], the MRP1 antagonism score in data set [1] stood at 1.0. Moreover, the IC50 (as a rule, the concentration that inhibits the measured activity by half) in data set [2] (Homo sapiens, MCF7, 48 h) was over 94 µM.
With `Cn1c(=O)c(COc2ccc(F)cc2)nc2ccccc21` [Compound 2], the MRP1 antagonism score in data set [1] amounted to 0.8. Also, the half-maximal inhibitory concentration (IC50) in data set [2] (setting [4]) turned out to be 26 µM.
For the compound `Cn1c(=O)c(COc2ccc(C#N)cc2)nc2ccccc21` [Compound 3, 3-(4-Cyano-phenoxymethyl)-1-methyl-1H-quinoxalin-2-one], the MRP1 antagonism score in data set [1] is 0.8. Also, in data set [2] (Homo sapiens, MCF7, 48 h), the IC50 is over 43 µM.
For the compound `Cn1c(=O)c(COc2c(F)c(F)c(F)c(F)c2F)nc2ccccc21` [Compound 4], the P-gp antagonism score in data set [3] (NCI/ADR cells) amounted to 2.1. In addition, in data set [3], the p-GP/MRP1 came to 2.6. For the same compound, the MRP1 antagonism score in data set [1] is given as 0.8. Also, the IC50 in data set [2] (setting [4]) was over 70 µM.
With `Cn1c(=O)c(COc2ccc(C(=O)c3ccccc3)cc2)nc2ccccc21` [Compound 8, 3-(4-Benzoyl-phenoxymethyl)-1-methyl-1H-quinoxalin-2-one], the MRP1 antagonism score in data set [1] is 0.9. The same compound had an IC50 in data set [2] (Homo sapiens, MCF7, 48 h) of over 67 µM.
In the case of `Cc1cc(OCc2nc3ccccc3n(C)c2=O)ccc1[N+](=O)[O-]` [Compound 9], the P-gp antagonism score in data set [3] (NCI/ADR cells) is on record as 1.6. The p-GP/MRP1 in data set [3] was 1.4. For the same compound, the MRP1 antagonism score in data set [1] turned out to be 1.1. The IC50 in data set [2] (setting [4]) was over 77 µM.
The like results for `COC(=O)c1ccc(OCc2nc3ccccc3n(C)c2=O)c(OC)c1` [Compound 10, 3-Methoxy-4-(4-methyl-3-oxo-3,4-dihydroquinoxalin-2-yl-methoxy)-benzoyl methyl ester] were, in that order, 5.6, 5.2, 1.1 and 71 µM.
For the compound `Cn1c(=O)c(COc2ccccc2C(=O)Nc2ccccc2)nc2ccccc21` [Compound 11, 2-(4-Methyl-3-oxo-3,4-dihydroquinoxalin-2-yl-methoxy)-N-phenylbenzamide], in data set [1], the MRP1 antagonism score was found to be 1.0. The compound further came in with an IC50 in data set [2] (Homo sapiens, MCF7, 48 h) of over 32 µM.
In the case of `CN(C)c1cccc(OCc2nc3ccccc3n(C)c2=O)c1` [Compound 12], the P-gp antagonism score in data set [3] (NCI/ADR cells) turned out to be 1.1. For the same compound, in data set [3], the p-GP/MRP1 came to 1.1. Also, the MRP1 antagonism score in data set [1] came out at 0.9. The compound further showed an IC50 in data set [2] (setting [4]) of 57 µM.
For the compound `CCOC(=O)c1ccc(OCc2nc3ccccc3n(C)c2=O)cc1` [Compound 13, 4-(4-Methyl-3-oxo-3,4-dihydro-quinoxalin-2-ylmethoxy)-benzoyl ethyl ester], the P-gp antagonism score in data set [3] (NCI/ADR cells) is 3.8. Further, the p-GP/MRP1 in data set [3] was 4.2. The MRP1 antagonism score in data set [1] came to 0.9. Moreover, in data set [2] (setting [4]), the IC50 was over 74 µM.
Turning to `Cn1c(=O)c(COc2cccc(Nc3ccccc3)c2)nc2ccccc21` [Compound 14], the P-gp antagonism score in data set [3] (NCI/ADR cells) is 1.3. Besides, the p-GP/MRP1 in data set [3] is listed as 1.5. In data set [1], the MRP1 antagonism score stood at 0.9. For the same compound, in data set [2] (setting [4]), the IC50 came to 25 µM.
Turning to `Cn1c(=O)c(COc2ccccc2Cc2ccccc2)nc2ccccc21` [Compound 15], the P-gp antagonism score in data set [3] (NCI/ADR cells) is reported as 1.0. Further, the p-GP/MRP1 in data set [3] is 0.9. In addition, in data set [1], the MRP1 antagonism score is 1.1. This compound also gave an IC50 in data set [2] (setting [4]) of 8.1 µM.
Taken in the same sequence, the figures for `Cn1c(=O)c(COc2cccnc2)nc2ccccc21` [Compound 16] were 1.0, 0.9, 1.1 and over 56 µM.
Consider `Cn1c(=O)c(COc2ccc(-c3ccccc3)cc2)nc2ccccc21` [Compound 17], for which, in data set [1], the MRP1 antagonism score is reported as 0.7. Further, the half-inhibitory concentration (IC50) in data set [2] (setting [4]) amounted to 30 µM.
Taken in the same sequence, the figures for `COc1cc(OC)cc(OCc2nc3ccccc3n(C)c2=O)c1` [Compound 21] were 0.9 and 25 µM.
With `COc1ccc(OCc2nc3ccccc3n(C)c2=O)cc1OC` [Compound 22], the MRP1 antagonism score in data set [1] is listed as 0.9. In data set [2] (setting [4]), the IC50 amounted to 28 µM.
Regarding `COc1cc(OCc2nc3ccccc3n(C)c2=O)cc(OC)c1OC` [Compound 23], the P-gp antagonism score in data set [3] (NCI/ADR cells) was determined as 1.2. Moreover, the p-GP/MRP1 in data set [3] came out at 1.3. For the same compound, the MRP1 antagonism score in data set [1] is recorded as 0.9. The same compound returned an IC50 in data set [2] (setting [4]) of 21 µM.
As to `CN1CCc2c1nc1cc(Br)ccc1c2N` [Compound 36], the “Pgp Antagonism” value in data set [3] (NCI/ADR cells) is listed as 1.3. The “MRP Antagonism” value in data set [1] amounted to 1.6. In addition, the Toxicity in data set [2] is 99% and 94%.
For the compound `CCC(=O)Nc1c2c(nc3ccccc13)N(C)CC2` [Compound 37], the “Pgp Antagonism” value in data set [3] (NCI/ADR cells) was determined as 1.6. Besides, in data set [1], the “MRP Antagonism” value was 1.0.
As to `CN1CCc2c1nc1ccccc1c2NC(=O)Cc1ccccc1` [Compound 38], the “MRP Antagonism” value in data set [1] is 1.0.
As to `CC(C)NCC(=O)Nc1c2c(nc3ccccc13)N(C)CC2` [Compound 39], the “Pgp Antagonism” value in data set [3] (NCI/ADR cells) amounted to 1.8. Besides, the “MRP Antagonism” value in data set [1] is 1.4. For the same compound, in data set [2], the Toxicity is 39%.
In the case of `CN1CCc2c1nc1ccccc1c2NC(=O)CNC(C)(C)C` [Compound 40], in data set [3] (NCI/ADR cells), the “Pgp Antagonism” value turned out to be 3.2. Further, the “MRP Antagonism” value in data set [1] stood at 1.2. The compound further returned a Toxicity in data set [2] of 28%.
Taken in the same sequence, the figures for `CCN(CC)CC(=O)Nc1c2c(nc3ccccc13)N(C)CC2` [Compound 41] were 6.0, 1.2 and 30%.
In the case of `CN1CCc2c1nc1ccccc1c2NC(=O)CN1CCCCC1` [Compound 42], the “Pgp Antagonism” value in data set [3] (NCI/ADR cells) is reported as 4.1. Besides, in data set [1], the “MRP Antagonism” value is reported as 1.2. The compound further came in with a Toxicity in data set [2] of 51%.
The like results for `CCCCN(CCCC)CC(=O)Nc1c2c(nc3ccccc13)N(C)CC2` [Compound 43] were, in that order, 4.2, 1.3 and 50%.
Taken in the same sequence, the figures for `CN1CCc2c1nc1ccccc1c2NC(=O)CNCCc1ccc(O)cc1` [Compound 44] were 1.7, 1.4 and 21%.
Taken in the same sequence, the figures for `CN1CCc2c1nc1ccccc1c2NC(=O)C12CC3CC(CC(C3)C1)C2` [Compound 45] were 4.7, 0.9 and 29%.
Turning to `CN1CCc2c1nc1ccccc1c2NC(=O)CCc1cc(C(C)(C)C)c(O)c(C(C)(C)C)c1` [Compound 46], the “Pgp Antagonism” value in data set [3] (NCI/ADR cells) turned out to be 1.0. The “MRP Antagonism” value in data set [1] came out at 1.0. The compound further registered a Toxicity in data set [2] of 99%.
Consider `CN1CCc2c1nc1ccccc1c2N=C(c1ccccc1)N1CCCCC1` [Compound 47], for which, in data set [3] (NCI/ADR cells), the “Pgp Antagonism” value is reported as 2.4. Also, the “MRP Antagonism” value in data set [1] stood at 1.0. The Toxicity in data set [2] came out at 58%.
`Nc1c2c(nc3ccccc13)N(C1CCCCC1)CC2` [Compound 49]: the “Pgp Antagonism” value in data set [3] (NCI/ADR cells) turned out to be 0.8. Also, in data set [1], the “MRP Antagonism” value was 0.6. The same compound registered a Toxicity in data set [2] of 97%.
On to `Nc1c2c(nc3ccccc13)N(c1ccccc1)CC2` [Compound 51], for which, in data set [3] (NCI/ADR cells), the “Pgp Antagonism” value is 2.7. Besides, the “MRP Antagonism” value in data set [1] is 1.1. Moreover, in data set [2], the Toxicity is 52%.
For `CC(C)(C)NCC(=O)Nc1c2c(nc3ccccc13)N(Cc1ccccc1)CC2` [Compound 60], the Toxicity in data set [2] is recorded as 29%.
For the compound `Nc1c2c(nc3ccccc13)N(Cc1ccccc1)CC2` [Compound 4001], in data set [3], the “Antagonism at IC20 or less, P-gp” value worked out at 1.0; the “Maximum Antagonism” value is 4.0 (3.1); the “Maximum Antagonism (conc. μg/ml)” value is 4.0 (3.1) μg/ml. Besides, the “Toxicity IC50” value in data set [2] (setting [5]) worked out at 1.7 µg/mL.
As to `Fc1cccc(CNc2c3c(nc4ccccc24)N(Cc2ccccc2)CC3)c1` [Compound 4003], the “Maximum Antagonism (conc. μg/ml)” value in data set [3] (setting [6]) came out at 25 µg/mL. Moreover, the “Toxicity IC50” value in data set [2] (setting [5]) was over 25 µg/mL.
Taken in the same sequence, the figures for `COc1cc(CNc2c3c(nc4ccccc24)N(Cc2ccccc2)CC3)cc(OC)c1` [Compound 4005] were 25 µg/mL and 20 µg/mL.
On to `O=C(CN1CCCCC1)Nc1c2c(nc3ccccc13)N(Cc1ccccc1)CC2` [Compound 4007], for which, in data set [3] (FIG. 7, NCI/ADR cells, 50 nM vinblastine), the “potency of P-gp antagonism compared with verapamil” value is “somewhat more potent than verapamil”. Besides, in data set [3] (setting [6]), the “Maximum Antagonism (conc. μg/ml)” value was found to be 3.1 µg/mL. For the same compound, the “Toxicity IC50” value in data set [2] (setting [5]) was determined as 6 µg/mL.
With `O=C(Nc1c2c(nc3ccccc13)N(Cc1ccccc1)CC2)c1c(F)cccc1C(F)(F)F` [Compound 4009], the “Maximum Antagonism (conc. μg/ml)” value in data set [3] (setting [6]) was found to be 3.1 µg/mL. Besides, the “Toxicity IC50” value in data set [2] (setting [5]) worked out at 6 µg/mL.
The like results for `O=C(Nc1c2c(nc3ccccc13)N(Cc1ccccc1)CC2)c1ccc(F)c(C(F)(F)F)c1` [Compound 4010] were, in that order, 3.1 µg/mL and 9 µg/mL.
